From US4215136A, “Insoluble metal salts of N-acetyl-tryptophane and use thereof” (Cooperation Pharmaceutique Francaise, priority 1976, dated 1980)
Like-named read-outs stand apart in the source and are kept apart here. Blank lines part the entries; values can stand above or below the compound they belong to.

Tests used:
[1] = Activity on intestinal passage (vegetable carbon); assay type: in vivo, male mice; details: 2, 4 and 6 g/kg buccally; 10 minutes
Procedure: II--Activity on intestinal passage:
Male mice, fasting for 24 hours, weighing 18-20 g. were used.
The substances to be tested were administered buccally before a suspension of vegetable carbon (10 g/100 ml).
After 10 minutes, the animals were bled and the intestine was removed and examined.

[2] = anti-ulcer activity after administering reserpine; assay type: in vivo, Sprague-Dawley female rats, OFA S.P.F. Iffa Credo strain; details: p.o., 3 hours before and 3 hours after reserpine 5 mg/kg i.p.; Litchfield and Wilcoxon; 1200 min
Procedure: (D) Study of the anti-ulcer activity of compound A (D,L) and of compound B (D,L) after administering reserpine.
The technique used was that of Cohen and A. Pessonnier (Ann. Pharm. Fr (1963) 21, 215-22) according to the following protocol:
Sprague-Dawley female rats were used, of OFA S.P.F. Iffa Credo strain weighing 150±20 g; the rats received a single injection by the intraperitoneal route of 5 mg/kg of reserpine in solution in 0.25% acetic acid; the compound studied were administered twice by the buccal route: three hours before and three hours after the injection of reserpine; the rats were sacrificed 20 hours after the injection of reserpine; the assessment was established as follows:
1 = one to two ulcers in the form of small
2 = more than two ulcers
3 = one to two ulcers in the form of more or
4 = more than two ulcers
5 = one to two ulcers in the form of "furrows"
measuring at least 5 mm
6 = more than two ulcers
Maximum assessment for one stomach : 2 + 4 + 6 = 12
From the results obtained the ulceration index was deduced; the percentage of inhibition was calculated with respect to the index obtained in the controls.
The values of the AD50 calculated according to the method of Litchfield and Wilcoxon are: […]

[3] = Interaction with a monoamine-oxidase inhibitor (MAOI, Tylciprine); assay type: in vivo, Sprague-Dawley male rats of OFA strain; details: for central nervous action indicated by hyperthermia and hyperactivity: with MAOI (Tylciprine)
Procedure: III--Action on the central nervous system:
(A) Interaction with a monoamine-oxidase inhibitor (MAOI):
Sprague-Dawley male rats of OFA strain received 20 mg/kg intra peritoneally of Tylciprine (MAOI) and twenty minutes later, 3 g/kg of compound A (D,L) bucally.

[4] = "stress ulcer" technique aggravated by para-chloro-phenyl-alanine (PCPA); assay type: in vivo, female S.P.F. Sprague-Dawley OFA Iffa-Credo rats; details: PCPA 100 mg/kg intraperitoneally
Procedure: (C) Tests according to the "stress ulcer" technique aggravated by para-chloro-phenyl-alanine (PCPA) administered in a non-blocking dose.
The rats used were of the same sex, same strain and had the same weight as those used in the tests described under B. The experimental protocol was also the same.
However, in these tests the rats received intraperitoneally, at the time of stressing, 100 mg/kg of PCPA in suspension in distilled water including 3% of gum arabic and an "absolute control" group was provided having received no preparation before placing under stress.
By reason of the aggravation of the ulcers caused by the PCPA, the Lwoff assessment is no longer usable and is replaced by the following:
2 : three to four ulcers in the form of
5 : one to two ulcers in the form of "fur-
6 : three to four ulcers least 5 mm in length
with a maximum of 4 + 6 = 10.
In this way it was possible to determine the ulceration index and the percentage inhibition with respect to the controls.

[5] = "Shay ulcer" test (pylorus ligature); assay type: in vivo, female rats (Sprague-Dawley OFA Iffa-Credo)
Procedure: (A) Tests by the technique called "Shay ulcer" [Gastroenterology, 5, 43, (1945)].
The study was carried out on female rats [Sprague-Dawley OFA Iffa-Credo] weighing 170±10 g, conforming to the experimental protocol described below.
After fasting 48 hours, during which the rats had always available to them a 20% glucose solution, the pylorus was ligated and all beverage was eliminated.
Compound A in the form of two suspensions respectively 5 and 10% in distilled water containing 3% of gum arabic was administered orally and before the ligature of the pylorus to three groups of animals, the animals of the first two groups receiving the 5% solution and those of the third the 10% solution. These three groups of animals received active substance to the extent respectively of 250 mg/kg as regards those of the first group, 500 mg/kg as regards those of the second and 1000 mg/kg those of the third. A fourth group and control group of animals received 10 ml/kg of bidistilled water. […]
The tests having been carried out with aluminium acetyl-tryptophanate (compound A), on the one hand, and with titanium acetyl-tryptophanate (compound B), on the other hand, for each of these compounds there was determined, the "anti-ulcer dose 50" (or again active dose AD 50) by oral administration; for this determination the method of Litchfield and Wilcoxon [J. Pharmacol. 96, 98-111 (1949)], was employed. […]

[6] = "stress ulcer" test (immobilization); assay type: in vivo, female S.P.F. Sprague-Dawley OFA Iffa-Credo rats
Procedure: (B) Tests according to the technique called "stress ulcer". Rossi and Bonfils--Compte rendus de la Societe de Biologie, (1956), 150, page 2124.
The study was carried out on female S.P.F. Sprague-Dawley OFA Iffa-Credo rats, weighing 140±10 g and adhering to the following experimental protocol.
To cause the ulcer, the animals were immobilized in a flexible grid with meshes of 4×4 mm and suspended horizontally; they received neither food nor drink. They were sacrificed at the end of 24 hours. The stomachs were removed and opened and then the ulcers were counted with a binocular lens.
Each stomach was assessed according to the method of J. M. LWOFF and the ulceration index calculated.
The compound A suspended in distilled water with 3% of gum arabic was administered 48 hours and 24 hours before and at the time of placing under stress to three groups of animals. These animals each received by the oral route, 500, 1000 and 1500 mg/kg of this compound according to their group.
A control group received for three days, orally gummy water in the amount of 1 ml/100 g.
As in the case of "Shay ulcer" the same study was reproduced with kaolin.
The kaolin was suspended in distilled water with 3% of gum arabic and was administered by the buccal route 48 hours and 24 hours before and at the time of placing under stress. […]

[7] = assay type: in vivo, male rats
From the text: (B) Interaction with a MAOI after treatment with P.C.P.A.
If the test is renewed under the same conditions but on male rats previously treated by decreasing doses of P.C.P.A. which is a tryptophane-hydroxylase inhibitor, it is observed that: […]

[8] = 8640 min
[9] = 2 g/kg, Tylciprine 20 mg/kg i.p.
[10] = 3 g/kg bucally, Tylciprine 20 mg/kg i.p.
[11] = after PCPA 6 mg/kg for 1 day, Tylciprine

Structure (SMILES): CC(=O)N[C@@H](Cc1c[nH]c2ccccc12)C(=O)[O-].CC(=O)N[C@@H](Cc1c[nH]c2ccccc12)C(=O)[O-].CC(=O)N[C@@H](Cc1c[nH]c2ccccc12)C(=O)[O-].[Al+3] [Compound A, monobasic-(DL) aluminium N-acetyl-tryptophanate]
increase of intestinal passage with respect to the controls [1]: No significant increase
AD50, reserpine ulcer [2]: 1447 mg/kg
hyperactivity [3, 9]: notable hyperactivity
hyperthermia [3, 9]: does not cause hyperthermia
hyperthermia ([3]; 3 g/kg bucally, 20 minutes after Tylciprine 20 mg/kg i.p.): Hyperthermia was observed which commenced fairly rapidly
hyperactivity [3, 10]: hyperactivity
onset of hyperactivity [3, 10]: 80 min
time of maximum hyperactivity [3, 10]: 155 min
time of maximum hyperthermia [3, 10]: 185 min
central nervous action indicated by hyperthermia and hyperactivity [3]: apparently central nervous serotoninergic action, that is to say antidepressive
anti-ulcer activity, stress ulcer aggravated by PCPA (in words) [4]: still considerable
AD50, stress ulcer aggravated by PCPA ([4]; oral route): 1325 mg/kg
activity relative to that expected by reason of Al^3+ / Ti^4+ ions alone ([5]; Shay ulcer): about 7 times higher
AD 50 (anti-ulcer dose 50), Shay ulcer ([5]; oral, before ligature of the pylorus, 18 hours, Litchfield and Wilcoxon): 550 mg/kg
AD 50, stress ulcer ([6]; buccal route, 48 h and 24 h before and at time of stress, sacrificed at 24 hours): 700 mg/kg
superiority of compound A (over kaolin), stress ulcer versus Shay ulcer ([6]; stress ulcer compared with Shay ulcer): still much more marked
hyperactivity [7, 11]: notable hyperactivity
rectal temperature [7, 11]: without variation in the rectal temperature
hyperactivity ([7]; after PCPA 12.5 mg/kg for 1 day, Tylciprine): first signs of hyperactivity
hyperthermia and hyperactivity ([7]; after PCPA 50 mg/kg for 2 days, Tylciprine): neither hyperthermia nor hyperactivity
passage through the hemato-cerebral barrier ([7]; rat, in vivo): passage of its anion through the hemato-cerebral barrier
LD50 (higher than the total dose without mortality) ([8]; oral, six days): > 15000 mg/kg
LD 50 ([8]; orally): > 15000 mg/kg

central nervous action indicated by hyperthermia and hyperactivity [3]: comparable activities
Structure (SMILES): N[C@@H](Cc1c[nH]c2ccccc12)C(=O)O [L-tryptophane]
